# From US20260184710A1, “CASITAS B-LINEAGE LYMPHOMA PROTOONCOGENE B (CBL-B) DEGRADING COMPOUNDS AND ASSOCIATED METHODS OF USE” (Arvinas Operations, Inc., priority 2022, published 2026)
# Molecular target: T1, Cbl-b (Homo sapiens, UniProt Q13191)
# T1 construct: Cbl-b-HiBit KI Jurkat Cells were purchased from Promega; host or cells: Cbl-b-HiBiT knock-in Jurkat cells
# Assay: Cbl-b Degradation Method B (Nano-Glo HiBiT lytic detection)
# Format: cell-based
# Settings: Cbl-b-HiBit KI Jurkat Cells, incubated at least 6-24 hours; for DC50: half maximal degradation, read-out: Cbl-b Degredation Method B IC50; for Dmax: maximum degradation observed, read-out: Cbl-b Degredation Method B Dmax (%)
# Experimental: Cbl-b Degradation Method B [table] Cbl-b-HiBit KI Jurkat Cells were purchased from Promega, and cell media consisted of RPMI 1640 with 10% […] and 1% pen/strep. The cells were counted, measured for viability, and 35 μL of the cell solution was seeded into 384 well flat bottom plates at a ratio of 20,000 cells per 35 μL. After which, the plates were incubated for ˜24 hours at 37° C. and 5% CO2. Compounds were ordered from Evotec in a 384 well plate at a 1 mM top concentration in DMSO and serially diluted 1:3 in DMSO for an 11-point dose response. Using the Bravo instrument, 1 uL of compound solution or DMSO was transferred to 125 uL of media. Each well was treated with 5 μL of compound plus media mixture or DMO and subsequently incubated for at least 6-24 hours at 37° C. and 5% CO2. After incubation, 30 μL of either NanoGlo media was added to each cell, and the plates read on the Synergy Neo2 machine. The concentration of an exemplary compound that leads to half maximal degradation (DC50) as well as the maximum degradation observed (Dmax, conventionally expressed as a percentage of control) is shown below in Table 2.
# T1 sequence (Q13191 whole entry): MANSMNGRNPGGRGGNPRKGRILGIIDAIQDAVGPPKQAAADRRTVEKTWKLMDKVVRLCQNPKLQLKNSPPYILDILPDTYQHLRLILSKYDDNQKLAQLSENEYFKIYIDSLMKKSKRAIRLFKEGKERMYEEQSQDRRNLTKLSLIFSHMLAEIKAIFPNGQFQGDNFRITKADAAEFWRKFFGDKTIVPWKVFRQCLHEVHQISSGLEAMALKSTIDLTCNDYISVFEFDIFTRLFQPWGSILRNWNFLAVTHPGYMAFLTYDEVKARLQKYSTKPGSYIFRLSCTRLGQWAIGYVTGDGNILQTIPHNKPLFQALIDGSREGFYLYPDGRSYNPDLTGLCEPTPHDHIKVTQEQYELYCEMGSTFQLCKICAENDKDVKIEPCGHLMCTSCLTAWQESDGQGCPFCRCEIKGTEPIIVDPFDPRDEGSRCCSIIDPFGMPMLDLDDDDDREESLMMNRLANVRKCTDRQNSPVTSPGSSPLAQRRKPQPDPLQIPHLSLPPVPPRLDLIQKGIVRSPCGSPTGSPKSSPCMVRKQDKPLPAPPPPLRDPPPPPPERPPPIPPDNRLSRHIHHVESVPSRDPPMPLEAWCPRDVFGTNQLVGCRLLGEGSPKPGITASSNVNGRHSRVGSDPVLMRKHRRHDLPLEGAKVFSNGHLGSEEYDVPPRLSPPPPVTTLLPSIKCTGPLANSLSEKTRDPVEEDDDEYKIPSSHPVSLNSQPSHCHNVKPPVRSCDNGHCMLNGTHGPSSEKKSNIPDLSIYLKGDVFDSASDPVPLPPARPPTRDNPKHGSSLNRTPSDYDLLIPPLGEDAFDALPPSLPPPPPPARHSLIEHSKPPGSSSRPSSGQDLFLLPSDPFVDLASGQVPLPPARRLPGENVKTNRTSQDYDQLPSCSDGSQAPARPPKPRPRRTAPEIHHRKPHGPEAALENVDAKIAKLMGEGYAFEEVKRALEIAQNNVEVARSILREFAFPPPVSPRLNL
SMILES,DC50 [nM],Dmax [%]
"CC1c2nc(N3CCC(O[C@H]4CC[C@H](CN5CCN(Cc6cc7c(c(C(F)(F)F)c6)CN(c6cccc(C8(Cc9nncn9C)CCOCC8)c6)C7=O)CC5)CC4)CC3)ccc2C(=O)N1C1CCC(=O)NC1=O (mixture of isomers) [Example 233, rac-3-[7-methyl-5-oxo-2-(4-{[(1r,4r)-4-[(4-{[2-(3-{4-[(4-methyl-4H-1,2,4-triazol-3-yl)methyl]oxan-4-yl}phenyl)-3-oxo-7-(trifluoromethyl)-2,3-dihydro-1H-isoindol-5-yl]methyl}piperazin-1-yl)methyl]cyclohexyl]oxy}piperidin-1-yl)-5H,6H,7H-pyrrolo[3,4-b]pyridin-6-yl]piperidine-2,6-dione]",> 500,–
"CCn1cnnc1CC1(c2cccc(N3Cc4c(cc(CN5CCN(C[C@H]6CC[C@H](OC7CCN(c8ccc9c(n8)C(C)N(C8CCC(=O)NC8=O)C9=O)CC7)CC6)CC5)cc4C(F)(F)F)C3=O)c2)COC1 (mixture of isomers) [Example 235, rac-3-[7-methyl-5-oxo-2-(4-{[(1r,4r)-4-[(4-{[2-(3-{3-[(4-ethyl-4H-1,2,4-triazol-3-yl)methyl]oxetan-3-yl}phenyl)-3-oxo-7-(trifluoromethyl)-2,3-dihydro-1H-isoindol-5-yl]methyl}piperazin-1-yl)methyl]cyclohexyl]oxy}piperidin-1-yl)-5H,6H,7H-pyrrolo[3,4-b]pyridin-6-yl]piperidine-2,6-dione]",< 5,35 to 70
"CC1c2nc(N3CCC(O[C@H]4CC[C@H](CN5CCN(Cc6cc7c(c(C(F)(F)F)c6)CN(c6cccc(C8(Cc9nncn9C)COC8)c6)C7=O)C(C)(C)C5)CC4)CC3)ccc2C(=O)N1C1CCC(=O)NC1=O (relative stereo) [Example 246, rel-3-[7-methyl-5-oxo-2-(4-{[(1r,4r)-4-[(3,3-dimethyl-4-{[2-(3-{3-[(4-methyl-4H-1,2,4-triazol-3-yl)methyl]oxetan-3-yl}phenyl)-3-oxo-7-(trifluoromethyl)-2,3-dihydro-1H-isoindol-5-yl]methyl}piperazin-1-yl)methyl]cyclohexyl]oxy}piperidin-1-yl)-5H,6H,7H-pyrrolo[3,4-b]pyridin-6-yl]piperidine-2,6-dione]",< 5,35 to 70
"CC1c2nc(N3CCC(O[C@H]4CC[C@H](CN5CCN(Cc6cc(C(F)(F)F)c7cn(-c8cccc(C9(Cc%10nncn%10C)CC9)c8)nc7c6)C(C)(C)C5)CC4)CC3)ccc2C(=O)N1C1CCC(=O)NC1=O (relative stereo) [Example 253, rel-3-[7-methyl-5-oxo-2-(4-{[(1r,4r)-4-[(3,3-dimethyl-4-{[2-(3-{1-[(4-methyl-4H-1,2,4-triazol-3-yl)methyl]cyclopropyl}phenyl)-4-(trifluoromethyl)-2H-indazol-6-yl]methyl}piperazin-1-yl)methyl]cyclohexyl]oxy}piperidin-1-yl)-5H,6H,7H-pyrrolo[3,4-b]pyridin-6-yl]piperidine-2,6-dione]",> 500,–
"CC1c2nc(N3CCC(O[C@H]4CC[C@H](CN5CCN(Cc6cc(C(F)(F)F)c7cn(-c8cccc(C9(Cc%10nncn%10C)CCC9)c8)nc7c6)C(C)(C)C5)CC4)CC3)ccc2C(=O)N1C1CCC(=O)NC1=O (relative stereo) [Example 255, rel-3-[7-methyl-5-oxo-2-(4-{[(1r,4r)-4-[(3,3-dimethyl-4-{[2-(3-{1-[(4-methyl-4H-1,2,4-triazol-3-yl)methyl]cyclobutyl}phenyl)-4-(trifluoromethyl)-2H-indazol-6-yl]methyl}piperazin-1-yl)methyl]cyclohexyl]oxy}piperidin-1-yl)-5H,6H,7H-pyrrolo[3,4-b]pyridin-6-yl]piperidine-2,6-dione]",> 500,–
